Measured values published in paper PMC9182086, “Identification of New Non-BBB Permeable Tryptophan Hydroxylase Inhibitors for Treating Obesity and Fatty Liver Disease” (Molecules, 2022).
pIC50: −log10 of the molar value.

Columns and labels:
TPH1 = target: T1, TPH1 (Homo sapiens, UniProt P17752); test: TPH1 enzyme inhibition, in vitro screening (BPS Bioscience kit, fluorescence); assay type: biochemical; conditions: for inhibition at 1 µM / TPH1 Inhibition (% Inhibition at 1 µM): 1 µM compound; for inhibition at 10 µM: 10 µM compound (stated in the cell)
T1 construct: purchased BPS Bioscience
T1 sequence (P17752 1-444): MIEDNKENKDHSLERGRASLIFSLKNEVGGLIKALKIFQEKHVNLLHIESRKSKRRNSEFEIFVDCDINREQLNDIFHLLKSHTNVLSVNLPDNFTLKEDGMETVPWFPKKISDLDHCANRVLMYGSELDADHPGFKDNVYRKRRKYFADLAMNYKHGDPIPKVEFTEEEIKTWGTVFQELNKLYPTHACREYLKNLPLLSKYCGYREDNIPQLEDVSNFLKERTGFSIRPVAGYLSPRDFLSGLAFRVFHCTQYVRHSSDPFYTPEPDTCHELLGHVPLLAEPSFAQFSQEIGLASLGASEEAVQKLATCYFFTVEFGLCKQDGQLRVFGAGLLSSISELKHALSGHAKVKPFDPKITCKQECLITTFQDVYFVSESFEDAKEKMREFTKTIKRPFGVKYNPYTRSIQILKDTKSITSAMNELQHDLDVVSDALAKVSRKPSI
Procedure: Consequently, the core structure of thienopyrimidine tyrosine (derivative 6) was selected as the starting point for the synthesis, evaluating the structure-activity relationships (SAR), and optimization of TPH1 inhibitors. […]
In vitro screening was performed as described previously [PMID: 33417443]. Briefly, TPH1 enzyme activity was measured with a commercially available kit (BPS Bioscience). Compounds were dissolved in DMSO (Sigma). Then, 10 μL of the compound was dispensed into a 96-well microplate, and 40 μL of the TPH1 enzyme solution (320 ng enzyme/reaction) was added. Then, 50 μL of the TPH1 reaction solution was added, and the microplate was sealed with aluminum foil. The microplate was immediately cooled to 4 °C, gently shaken, and incubated for 4 h. After a defined time, 10 μL of the TPH1 quench solution was added. Then, the fluorescence was measured with a Flexstation3 microplate reader at 300 nm for excitation and 360 nm for emission. All experiments were performed in triplicate.

HFD-fed C57BL/6J mice = test: In vivo efficacy test in high-fat diet fed mice; parameters: species or system mouse; conditions: vs vehicle
Procedure: All animal study protocols were approved by the Institutional Animal Care and Use Committee at the Korea Advanced Institute of Science and Technology. Male C57BL/6J mice were purchased from SLC (Shizuoka, Japan) and acclimatized for a week. Mice were housed in a humidity and temperature-controlled environment under a 12 h light-dark cycle with ad libitum access to water and food. After acclimatization, male mice were fed a high-fat diet (HFD, 60% fat calories, Research diet; New Brunswick, NJ) and received daily treatment with TPH1 inhibitors. […] Compound 18i was dissolved in 5% dimethyl sulfoxide (DMSO) (Sigma, St. Louis, MO, USA) and 25% β-cyclodextrin (Sigma, St. Louis, MO, USA). Vehicle or compound 18i (100 mg kg^−1) was injected intraperitoneally in mice for 10 days after two weeks of HFD feeding. Both compounds 19 and 21 were prepared in 10% DMSO and 10% Kolliphor EL (Sigma, St. Louis, MO, USA). Vehicle and 100 mg kg^−1 of compound 19 or compound 21 were administered daily by intraperitoneal injection or oral feeding, respectively, concomitant to the initiation of HFD feeding. For analyzing blood glucose concentration, glucose in blood collected from the tail vein was measured after fasting mice for 16 h using a Gluco Dr. Top glucometer (Allemedicus, Anyang, Korea). Body weight was measured daily and mice were sacrificed for harvesting adipose tissue and liver.
Tissue samples were fixed in 10% formalin, embedded in paraffin, and cut into 5 μm thick sections, followed by deparaffinization and rehydration for H&E staining and UCP1 immunohistochemistry. After heat-induced antigen retrieval with a citrate buffer (pH 6.0) for 10 min at 95°C, tissue sections were incubated with BLOXALL Blocking solution (Vector Laboratories, Burlingame, CA, USA) to block endogenous peroxidase, followed by incubation with 2% normal goat serum in phosphate-buffered saline (PBS) for 30 min at room temperature to block nonspecific binding. Sections were incubated overnight with the anti-UCP1 primary antibody diluted 1:200 in 2% normal goat serum in PBS (Abcam, Cambridge, UK) at 4 °C, followed by 30 min incubation with biotinylated anti-rabbit IgG secondary antibody diluted 1:400 in PBS for 30 min at room temperature. After incubation with Vectastain […] reagent (Vector Laboratories) for 30 min, peroxidase activity was visualized with 3,3′-diaminobenzidine substrates (Vector Laboratories). For measuring average adipocyte size, we analyzed three random fields of H&E stained micrographs per adipose tissue sample from two representative mice of each group using AdipoCount software.
Fresh liver tissues were flash frozen in O.C.T. compound (Sakura Finetek, Torrance, CA, USA) and 10 μm cryostat sections were collected on glass slides. Sections were allowed to air-dry for 1 h, rinsed with PBS for 5 min, and washed with distilled water for 5 min. After washing, sections were placed in 30% isopropanol for 5 min, 60% isopropanol for 5 min twice, and then stained in Oil Red O solution (0.5% Oil red O (Sigma, St. Louis, MO, USA) dissolved in 60% isopropanol) for 15 min. The stained sections were rinsed twice with distilled water, mounted, coverslipped, and documented using bright field microscopy.

PAMPA-BBB permeability = assay type: in vitro ADME; conditions: high permeation predicted > 4.0, low < 2.0, read-out: BBB Permeability Pe
Excerpt: Based on the in vitro data, compound 18i was selected for […] the in vitro BBB permeability. Several in vitro methods and computational models have been used in drug discovery to predict the potential of a drug to penetrate the BBB [15, 16, 17, 18, 19, 20, 21]. The parallel artificial membrane permeation assay (PAMPA) was used to evaluate the BBB permeability of the selected compounds. The PAMPA-BBB assay is advantageous because it predicts passive penetration at the blood-brain barrier with high success, high throughput, low cost, and high reproducibility.
PAMPA was conducted with a […] PAMPA sandwich (pION, Inc., Billerica, MA, USA) consisting of a 96-well filter plate (0.45 μm PVDF membrane) and a 96-well polystyrene donor plate. Test compounds were prepared in 10 mM stock solution with DMSO and diluted to a working solution of 50 μM concentration using a phosphate buffered saline (PBS) buffer. To form lipid membranes in the acceptor plate, 5 μL GIT-0 lipid (pION, Inc., Billerica, MA, USA) was dropped and semi-dried on the bottom side of the 0.45 μm PVDF membrane. The donor plate was prepared by the addition of 200 μL of working solution. […] To acquire the peak area of range from 230 to 500 nm, absorbance scans of PBS, acceptor, donor, and working solution were carried out with an Epoch ELISA reader (BioTek Instruments Inc., Winooski, VT, USA). […]

[1] = test system: high-fat diet (HFD) fed mice; parameters: method as in PMID 25864946, PMID 25485911; conditions: cited from earlier work

N[C@@H](Cc1ccc(-c2csc3c(OC(c4ccccc4-c4ccccc4)C(F)(F)F)ncnc23)cc1)C(=O)O (some centres unmarked) [Compound 18e]
inhibition at 1 µM (TPH1): 76%

N[C@@H](Cc1ccc(Oc2ncnc3c(-c4cccc(OCc5ccccc5)c4)csc23)cc1)C(=O)O [Compound 11b]
inhibition at 100 µM (TPH1; 100 µM compound): 94%
TPH1 Inhibition (% Inhibition at 100 µM) (TPH1; 100 µM compound, 100 µM): 92%

CCOC(=O)[C@@H](N)Cc1ccc(-c2csc3c(O[C@H](c4ccc(Cl)cc4-n4ccc(C)n4)C(F)(F)F)ncnc23)cc1.Cl [Compound 19, ethyl (S)-2-amino-3-(4-(4-((R)-1-(4-chloro-2-(3-methyl-1H-pyrazol-1-yl)phenyl)-2,2,2-trifluoroethoxy)thieno[3,2-d]pyrimidin-7-yl)phenyl)propanoate hydrochloride]
pIC50 (TPH1): 6.00
TPH1 Inhibition (% Inhibition at 1 µM) (TPH1): 60%
Body weight gain (HFD-fed C57BL/6J mice; 100 mg/kg ip daily for 11 days from start of HFD): attenuated body weight gain
Adipocyte size in eWAT and iWAT (histology) (HFD-fed C57BL/6J mice; 100 mg/kg ip daily): decreased adipocyte size
UCP1 content in iWAT (immunohistochemistry) (HFD-fed C57BL/6J mice; 100 mg/kg ip daily): higher content of mitochondrial uncoupling protein 1 (UCP1)

N[C@@H](Cc1ccc(Oc2ncnc3c(-c4cccc(O)c4)csc23)cc1)C(=O)O [Compound 9b]
inhibition at 100 µM (TPH1; 100 µM compound): 82%

CCOC(=O)[C@@H](N)Cc1ccc(-c2csc3c(O[C@H](c4ccc(Cl)cc4-n4ccc(C)n4)C(F)(F)F)ncnc23)cc1 [Compound 20, ethyl (S)-2-amino-3-(4-(4-((R)-1-(4-chloro-2-(3-methyl-1H-pyrazol-1-yl)phenyl)-2,2,2-trifluoroethoxy)thieno[3,2-d]pyrimidin-7-yl)phenyl)propanoate]
TPH1 Inhibition (% Inhibition at 1 µM) (TPH1; 1 µM): 79%

N[C@@H](Cc1ccc(-c2csc3c(O[C@H](c4ccc(Cl)cc4C4=CCCOC4)C(F)(F)F)ncnc23)cc1)C(=O)O [Compound 18h]
pIC50 (TPH1): 6.58
inhibition at 1 µM (TPH1): 78%

N[C@@H](Cc1ccc(Oc2ncnc3c(-c4ccc(O)cc4)csc23)cc1)C(=O)O [Compound 9a]
inhibition at 100 µM (TPH1; 100 µM compound): 45%

C[C@@H](Nc1ncnc2c(-c3ccc(C[C@H](N)C(=O)O)cc3)csc12)c1ccc2ccccc2c1 [Compound 18b]
inhibition at 1 µM (TPH1): 10%

N[C@@H](Cc1ccc(Oc2ncnc3c(-c4ccc(OCc5ccccc5)cc4)csc23)cc1)C(=O)O [Compound 11a]
inhibition at 100 µM (TPH1; 100 µM compound): 58%

N[C@@H](Cc1ccc(-c2csc3c(OC(c4ccc(Cl)cc4-c4ccccc4)C(F)(F)F)ncnc23)cc1)C(=O)O (some centres unmarked) [Compound 18f]
inhibition at 1 µM (TPH1): 41%

Cl.N[C@@H](Cc1ccc(-c2csc3c(OC(c4ccccc4)C(F)(F)F)ncnc23)cc1)C(=O)O (some centres unmarked) [Compound 18c]
TPH1 inhibitory activity (in words) (TPH1): completely lost their activity
inhibition at 10 µM (TPH1): 2.5%

Cc1ccn(-c2cc(Cl)ccc2[C@@H](Oc2nc(N)nc3c(-c4ccc(C[C@H](N)C(=O)O)cc4)csc23)C(F)(F)F)n1 [Compound 30]
pIC50 (TPH1): 6.68
inhibition at 1 µM (TPH1): 91%

NC(Cc1ccc(Cl)cc1)C(=O)O (centres unmarked) [pCPA, para-chlorophenylalanine, reference compound]
Papp at 4 h, 50 µM (PAMPA-BBB permeability): 1.85 ×10⁻⁶ cm/s
inhibition at 1 µM (TPH1): < 5%
inhibition at 100 µM (TPH1; 100 µM compound): 25%
Protection against diet-induced obesity (body weight gain, lipogenesis in adipose tissue) [1]: protect against diet-induced obesity in vivo

N[C@@H](Cc1ccc(-c2csc3c(O)ncnc23)cc1)C(=O)O [Compound 15b]
TPH1 inhibitory activity (in words) (TPH1): weak activity
inhibition at 100 µM (TPH1; 100 µM compound): 33%

Nc1nc(OC(c2ccc(-c3cccc(F)c3)cc2)C(F)(F)F)cc(-c2ccc(C[C@H](N)C(=O)O)cc2)n1 (stereo partly drawn) [LP533401, 4-[2-amino-6-[2,2,2-trifluoro-1-(3’-fluoro[1,1’-biphenyl]-4-yl)ethoxy]-4-pyrimidinyl]-L-phenylalanine, reference compound]
Protection against diet-induced obesity (body weight gain, lipogenesis in adipose tissue) [1]: protect against diet-induced obesity in vivo

N[C@@H](Cc1ccc(-c2csc3c(OC(c4ccc(-c5ccccc5)cc4)C(F)(F)F)ncnc23)cc1)C(=O)O (some centres unmarked) [Compound 18d]
TPH1 inhibitory activity (in words) (TPH1): completely lost their activity
inhibition at 10 µM (TPH1): 1.2%

N[C@@H](Cc1ccc(Oc2ncnc3c(Br)csc23)cc1)C(=O)O [Compound 6]
inhibition at 100 µM (TPH1; 100 µM compound): > 60%

N[C@@H](Cc1ccc(-c2csc3c(O[C@H](c4ccc(Cl)cc4-c4ccoc4)C(F)(F)F)ncnc23)cc1)C(=O)O [Compound 18g]
inhibition at 1 µM (TPH1): 12%

N[C@@H](Cc1ccc(-c2csc3c(NCc4ccc(-c5ccccc5)cc4)ncnc23)cc1)C(=O)O [Compound 18a]
inhibition at 1 µM (TPH1): 25%
inhibition at 100 µM (TPH1; 100 µM compound): 90%

Nc1ncnc2c(-c3ccc(C[C@H](N)C(=O)O)cc3)csc12 [Compound 15a]
TPH1 inhibitory activity (in words) (TPH1): weak activity
inhibition at 100 µM (TPH1; 100 µM compound): 49%

CCOC(=O)[C@@H](N)Cc1ccc(-c2csc3c(O[C@H](c4ccc(Cl)cc4-n4ccc(C)n4)C(F)(F)F)ncnc23)cc1 [Compound 21, ethyl (S)-2-amino-3-(4-(4-((R)-1-(4-chloro-2-(3-methyl-1H-pyrazol-1-yl)phenyl)-2,2,2-trifluoroethoxy)thieno[3,2-d]pyrimidin-7-yl)phenyl)propanoate hippurate]
TPH1 Inhibition (% Inhibition at 1 µM) (TPH1; 1 µM): 92%
Body and liver weights (HFD-fed C57BL/6J mice; 100 mg/kg oral daily, 6 weeks): without significant changes in body and liver weights
Lipid accumulation in liver tissue (H&E, oil red O) (HFD-fed C57BL/6J mice; 100 mg/kg oral daily, 6 weeks): dramatically decreased lipid accumulation in liver tissue
